Results: publication PMC11057469, “Quantitative cross-species comparison of serum albumin binding of per- and polyfluoroalkyl substances from five structural classes” (Toxicological Sciences, 2024)
Read-outs that look alike come from different tables or passages of the source.

Tests used:
[1] = target: Bovine serum albumin (BSA) (Bos taurus, UniProt P02769); assay: in vitro; settings: for difference in binding affinity, BSA affinity lower than HSA: BSA compared with HSA; for ΔTm: bovine, pH 7.4
Sequence of Bovine serum albumin (BSA) (P02769 25-607): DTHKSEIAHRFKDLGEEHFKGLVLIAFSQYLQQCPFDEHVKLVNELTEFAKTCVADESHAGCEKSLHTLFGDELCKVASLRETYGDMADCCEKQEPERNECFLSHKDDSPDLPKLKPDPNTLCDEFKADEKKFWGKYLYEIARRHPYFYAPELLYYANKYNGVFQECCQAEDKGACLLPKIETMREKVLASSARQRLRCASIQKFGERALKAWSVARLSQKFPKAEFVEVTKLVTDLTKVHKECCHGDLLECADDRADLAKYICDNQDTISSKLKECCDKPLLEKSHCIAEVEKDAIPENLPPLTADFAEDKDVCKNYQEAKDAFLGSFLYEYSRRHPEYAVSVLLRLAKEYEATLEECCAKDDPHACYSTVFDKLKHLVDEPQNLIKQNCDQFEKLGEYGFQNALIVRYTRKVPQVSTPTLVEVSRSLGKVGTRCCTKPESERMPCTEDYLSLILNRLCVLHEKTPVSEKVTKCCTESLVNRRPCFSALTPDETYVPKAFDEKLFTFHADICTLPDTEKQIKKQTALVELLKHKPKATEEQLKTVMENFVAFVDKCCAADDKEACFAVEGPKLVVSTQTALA
Protocol: (§1) A minimum of 2 independent plates were run for each protein-ligand combination, with 3 replicates per sample on each plate. Controls on each plate included a no protein control, matching vehicle control (no ligand), and 3 concentrations of OA (1, 2, 3 mM) and/or PFHxA (0.3, 1, 3 mM) as positive controls. The concentration of albumin that yielded maximal signal-to-noise ratio was optimized for each species. […] For concentration-response analyses, PFAS stock solutions were serially diluted into HBS.

Rat serum albumin (RSA) = Rat serum albumin (RSA) (Rattus norvegicus, UniProt P02770); assay: in vitro; settings: for ΔTm: rat, pH 7.4; for difference in binding affinity, RSA affinity greater than HSA: RSA compared with HSA, from DSF Kd
Sequence of Rat serum albumin (RSA) (P02770 25-608): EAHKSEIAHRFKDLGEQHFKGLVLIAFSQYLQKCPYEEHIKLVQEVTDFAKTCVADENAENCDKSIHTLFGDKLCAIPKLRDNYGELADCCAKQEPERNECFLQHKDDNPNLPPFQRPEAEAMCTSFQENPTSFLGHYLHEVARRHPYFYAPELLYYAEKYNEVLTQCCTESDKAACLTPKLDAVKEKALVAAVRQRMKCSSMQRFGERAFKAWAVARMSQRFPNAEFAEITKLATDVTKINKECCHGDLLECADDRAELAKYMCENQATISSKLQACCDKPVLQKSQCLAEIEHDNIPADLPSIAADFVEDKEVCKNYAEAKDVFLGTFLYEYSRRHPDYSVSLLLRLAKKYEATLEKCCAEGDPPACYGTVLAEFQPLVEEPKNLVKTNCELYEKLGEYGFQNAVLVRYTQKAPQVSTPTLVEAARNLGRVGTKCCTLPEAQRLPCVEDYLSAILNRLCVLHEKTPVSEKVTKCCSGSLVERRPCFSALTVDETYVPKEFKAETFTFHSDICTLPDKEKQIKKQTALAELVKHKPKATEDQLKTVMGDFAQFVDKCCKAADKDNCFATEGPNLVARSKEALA
Protocol: (§2) Serum albumin stocks (1 mM) were prepared by reconstituting lyophilized stocks in HBS, with expected protein concentrations confirmed using the colorimetric Bio-Rad DC Protein Assay (Hercules, California).
as §1

[2] = target: human serum albumin (HSA) (Homo sapiens, UniProt P02768); assay: in vitro
Sequence of human serum albumin (HSA) (P02768 25-609): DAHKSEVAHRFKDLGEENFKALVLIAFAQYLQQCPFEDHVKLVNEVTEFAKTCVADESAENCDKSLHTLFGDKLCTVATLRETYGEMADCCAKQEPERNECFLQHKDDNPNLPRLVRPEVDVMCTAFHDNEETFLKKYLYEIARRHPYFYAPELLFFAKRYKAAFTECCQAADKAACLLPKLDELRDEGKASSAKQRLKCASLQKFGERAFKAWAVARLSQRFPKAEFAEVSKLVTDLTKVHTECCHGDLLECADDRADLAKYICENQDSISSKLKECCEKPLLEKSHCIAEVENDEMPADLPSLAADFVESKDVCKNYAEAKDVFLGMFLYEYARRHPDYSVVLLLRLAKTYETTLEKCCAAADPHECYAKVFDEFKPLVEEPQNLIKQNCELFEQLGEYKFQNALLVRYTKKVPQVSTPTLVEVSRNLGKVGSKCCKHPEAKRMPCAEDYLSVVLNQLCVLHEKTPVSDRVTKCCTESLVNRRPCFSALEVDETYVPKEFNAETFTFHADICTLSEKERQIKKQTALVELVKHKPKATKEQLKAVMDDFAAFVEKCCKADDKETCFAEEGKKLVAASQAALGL
Protocol: as §2, §1

[3] = target: porcine serum albumin (PSA) (Sus scrofa, UniProt P08835); assay: in vitro; settings: for ΔTm: pig, pH 7.4
Sequence of porcine serum albumin (PSA) (P08835 25-607): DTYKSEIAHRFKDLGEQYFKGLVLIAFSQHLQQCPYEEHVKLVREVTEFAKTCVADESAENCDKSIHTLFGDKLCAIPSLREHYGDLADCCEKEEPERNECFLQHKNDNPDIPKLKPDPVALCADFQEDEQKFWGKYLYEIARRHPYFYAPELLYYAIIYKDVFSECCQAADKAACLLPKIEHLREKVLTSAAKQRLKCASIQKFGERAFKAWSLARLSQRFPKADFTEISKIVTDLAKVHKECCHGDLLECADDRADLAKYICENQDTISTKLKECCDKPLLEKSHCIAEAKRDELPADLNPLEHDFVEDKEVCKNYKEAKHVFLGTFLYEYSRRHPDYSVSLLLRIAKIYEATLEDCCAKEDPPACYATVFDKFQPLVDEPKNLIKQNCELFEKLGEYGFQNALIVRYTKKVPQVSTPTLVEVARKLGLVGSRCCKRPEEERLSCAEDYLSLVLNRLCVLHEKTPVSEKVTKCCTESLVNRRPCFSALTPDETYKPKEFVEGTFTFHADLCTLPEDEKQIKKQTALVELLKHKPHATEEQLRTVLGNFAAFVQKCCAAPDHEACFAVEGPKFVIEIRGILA
Protocol: as §2, §1

[4] = rat, after oral exposure; ref Fasano et al., 2006; Xie et al., 2020; cited from earlier work
[5] = pig, after oral exposure; ref Fasano et al., 2006; Xie et al., 2020; cited from earlier work
[6] = elimination half-life in serum/plasma, Rat, cited from earlier work
[7] = elimination half-life in serum/plasma, Human, cited from earlier work
[8] = set-up: method as in Numata et al., 2014; settings: elimination half-life in serum/plasma, Pig; ref Numata et al., 2014; cited from earlier work
[9] = set-up: method as in Death et al., 2021; settings: elimination half-life in serum/plasma, Cow; ref Death et al., 2021; cited from earlier work
[10] = BSA, 1 = highest relative affinity, 4 = lowest
[11] = RSA, 1 = highest relative affinity, 4 = lowest
[12] = HSA, 1 = highest relative affinity, 4 = lowest
[13] = PSA, 1 = highest relative affinity, 4 = lowest
[14] = PSA compared with HSA, from DSF Kd

Structure (SMILES) | Kd [1] [µM] | difference in binding affinity, BSA affinity lower than HSA ([1]; from DSF Kd) [%] | rank order of binding affinity among the four albumins [1, 10] | rank order of binding affinity among the four albumins (Rat serum albumin (RSA); [11]) | rank order of binding affinity among the four albumins [2, 12] | rank order of binding affinity among the four albumins [3, 13] | Kd (Rat serum albumin (RSA)) [µM] | Kd [2] [µM] | Kd [3] [µM] | Half-life ([6]; ref Pizzurro et al., 2019) | Half-life ([7]; ref Pizzurro et al., 2019) | difference in binding affinity, PSA affinity greater than HSA [3, 14] [%] | Half-life [8] | further results
OCCC(F)(F)C(F)(F)C(F)(F)C(F)(F)C(F)(F)C(F)(F)F [6:2 FTOH, 1H, 1H, 2H, 2H-perfluorooctanol] | – | – | – | – | – | – | – | – | – | – | – | – | – | ΔTm, maximum change in melting temperature ([1]; BSA 0.18 mM, DSF, value (±SEM), N/A = nonbinding): no changes in albumin TM were detected; ΔTm, maximum change in melting temperature (Rat serum albumin (RSA); RSA 0.18 mM, DSF, value (±SEM), N/A = nonbinding): no changes in albumin TM were detected; ΔTm, maximum change in melting temperature ([2]; HSA 0.13 mM, DSF, value (±SEM), N/A = nonbinding): no changes in albumin TM were detected; ΔTm, maximum change in melting temperature ([3]; PSA 0.11 mM, DSF, value (±SEM), N/A = nonbinding): no changes in albumin TM were detected
O=S(=O)(O)CCC(F)(F)C(F)(F)C(F)(F)C(F)(F)C(F)(F)C(F)(F)F [6:2 FTSA, 2H, 2H, 3H, 3H-perfluorooctane-1-sulfonate] | 1390 | 108.9 | 4 | 1 | 2 | 3 | – | – | – | – | – | – | – | ΔTm [1]: 17.2 °C; ΔTm (Rat serum albumin (RSA)): 7.99 °C; ΔTm ([2]; human, pH 7.4): 3.53 °C; ΔTm [3]: 8.72 °C
OCCC(F)(F)C(F)(F)C(F)(F)C(F)(F)C(F)(F)C(F)(F)C(F)(F)C(F)(F)F [8:2 FTOH] | – | – | – | – | – | – | – | – | – | – | – | – | – | accumulation in tissues [4]: did not accumulate; accumulation in tissues [5]: did not accumulate
O=C(O)C(F)(OC(F)(F)C(F)(F)C(F)(F)F)C(F)(F)F (centres unmarked) [HFPO-DA, hexafluoropropylene oxide-dimer acid] | 2550 | 47.6 | 4 | 2 | 1 | 3 | 1640 | 1570 | 2120 | – | – | – | – | difference in binding affinity, HSA affinity greater than PSA ([3]; HSA compared with PSA, from DSF Kd): 29.8%
O=C(O)C(F)(F)C(F)(F)C(F)(F)F [PFBA, Perfluorobutanoic acid] | 3060 | – | 4 | 2 | 3 | 1 | 1900 | 2640 | 1280 | 1–9.2 h^a | 3.1 days^a | 69.4 | – | –
O=S(=O)(O)C(F)(F)C(F)(F)C(F)(F)C(F)(F)F [PFBS, perfluorobutanesulfonic acid] | – | – | 1 | 3 | 4 | 2 | 1410 | 1680 | 1250 | 0.6–7.4 h^a | 25.8 days^a | 29.4 | 43 days^d | difference in binding affinity, HSA affinity lower than BSA ([1]; HSA compared with BSA, from DSF Kd): 71.0%; difference in binding affinity, RSA affinity greater than HSA (Rat serum albumin (RSA)): 17.5%
O=C(O)C(F)(F)C(F)(F)C(F)(F)C(F)(F)C(F)(F)F [PFHxA, Perfluorohexanoic acid] | 2170 | 23.7 | 4 | 2 | 3 | 1 | 1330 | 1710 | 950 | – | – | 57.1 | 4.1 days^d | Half-life ([6]; ref Russell et al., 2013): 0.4–9.8 h^e; Half-life ([7]; ref Lau, 2015): 32 days^b
O=C(O)C(F)(F)C(F)(F)C(F)(F)C(F)(F)C(F)(F)C(F)(F)C(F)(F)F [PFOA, perfluorooctanoic acid] | 990 | 22.5 | 4 | 2 | 3 | 1 | 400 | 790 | 370 | 0.1–15 days^a | 2.3–8.5 years^a | 72.4 | 236 days^d | binding affinity of 8-carbon congener greater than 4-carbon congener ([1]; BSA, PFOA vs PFBA): 102.2%; Half-life [9]: 0.8–1.3 days^c; difference in binding affinity, RSA affinity greater than HSA (Rat serum albumin (RSA)): 65.5%; binding affinity of 8-carbon congener greater than 4-carbon congener (Rat serum albumin (RSA); RSA, PFOA vs PFBA, PFOS vs PFBS): 130.4%; binding affinity of 8-carbon congener greater than 4-carbon congener ([2]; HSA, PFOA vs PFBA, PFOS vs PFBS): 107.9%; binding affinity of 8-carbon congener greater than 4-carbon congener ([3]; PSA, PFOA vs PFBA, PFOS vs PFBS): 110.3%
O=S(=O)(O)C(F)(F)C(F)(F)C(F)(F)C(F)(F)C(F)(F)C(F)(F)C(F)(F)C(F)(F)F [PFOS, perfluorooctanesulfonic acid] | – | – | – | – | – | – | – | 690 | – | 24–83 days^a | 3.3–5.4 years^a | – | 1.7 years^d | hill slope of the biphasic melt curve [1]: 3.5 ± 0.3; rank order of binding affinity among the four albumins [1]: 4; ΔTm [1]: 15.3 °C; Half-life [9]: 39–120 days^c; binding affinity of 8-carbon congener greater than 4-carbon congener (Rat serum albumin (RSA)): 108.2%; rank order of binding affinity among the four albumins (Rat serum albumin (RSA)): 2; ΔTm (Rat serum albumin (RSA)): 4.76 °C; binding affinity of 8-carbon congener greater than 4-carbon congener [2]: 83.5%; rank order of binding affinity among the four albumins [2]: 3; Kd ([2]; human, pH 7.4): 620 µM; ΔTm ([2]; human, pH 7.4): 15.9 °C; binding affinity of 8-carbon congener greater than 4-carbon congener [3]: 106.7%; difference in binding affinity, PSA affinity greater than HSA [3]: 57.9%; rank order of binding affinity among the four albumins [3]: 1; ΔTm [3]: 5.74 °C
